Experimental data as given in patent US4579865A, “Benzofuranyl carbamates” (USV Pharmaceutical Corp., priority 1984, dated 1986).

Key:
Canine cardiac lipases = experiment: Myocardial lipase assay; type: biochemical; conditions: triolein emulsion, pH 6.8, read-out: Lipase I50
Procedure: All compounds were dissolved in DMSO (final concentration 3.0%) and tested in duplicate at a concentration of 100 μM. Canine cardiac lipases were obtained by extracting washed heart membranes with buffer plus heparin and a small amount of Triton X-100 detergent. Because these enzymes are only active at an oil-water interface, the enzyme reaction is run in an oil-water emulsion that contains triolein substrate, Tris buffer (50 mM, pH 6.8) and a small amount of bovine serum albumin (0.5%) added to stabilize the emulsion. A small amount of tritiated triolein was added to the unlabelled triolein substrate. Tritium-labelled oleic acid released by the lipases was extracted into hexane, separated from unreacted triolein and counted in a scintillation counter. Inhibitory agents reduce the amount of radioactivity appearing in the free fatty acid fraction isolated in the extraction procedure.

rat adipocyte lipolysis = experiment: Rat adipocyte assay (epinephrine-stimulated lipolysis, glycerol release); type: cell-based; conditions: rat adipocytes, epinephrine 3 μM plus methylisobutylxanthine 10 μM, 1 hour 37° C., read-out: Adipocyte I50
Procedure: Abdominal fat pads were removed from male rats weighing 200-250 grams and placed in Krebs-bicarbonate buffer gassed with 95% O2 /5% CO2. The fat pads were digested with collagenase for 1 hour at 37° C., washed twice with Krebs-bicarbonate buffer and distributed among a set of 20 ml plastic counting vials. Two such vials received only buffer and cells (4 ml) but no agonists or antagonists. The remaining vials received epinephrine (3 μM) plus the phosphodiesterase inhibitor methylisobutylxanthine (10 μM). Test compounds were dissolved in DMSO or water to a concentration of […] and 40 μl was added to the buffer plus cells in the counting vials. The final compound concentration for routine screening was 200 μM (final concentration of DMSO=1%).
The cells were incubated for 1 hour at 37° C. under a 95% O2 /5% CO2 atmosphere. The incubation was stopped by placing the vials in crushed ice. The cells and medium were transferred to test tubes, centrifuged and the cell layer removed by aspiration. The aqueous phase was assayed for glycerol using the enzyme glycerol dehydrogenase. The glycerol dihydrogenase assay for glycerol depends on the enzyme catalyzed conversion of glycerol to glyceraldehyde and NAD to NADH. The assay can detect as little as 5-10 nanomoles of glycerol. The aqueous phase, following removal of cells, usually contained about 50 to 80 nanomoles of glycerol per 300 μl of assayed sample if no inhibitory activity was present. Samples from the control tubes (no agonist) usually contained 0-5 nanomoles of glycerol per 300 μl of sample.

In Vivo Lipolysis = experiment: In vivo lipolysis assay (serum unesterified fatty acids in fasted rats); parameters: species or system rat; conditions: 2 hours after drug

SMILES: COc1ccc(NC(=O)Oc2cccc3ccoc23)cc1 [Example 1, 7-Benzofuranyl N-(4-methoxyphenyl)carbamate]
- IC50 (Canine cardiac lipases): 16 µM
- IC50 (rat adipocyte lipolysis): 0.3 µM
- In Vivo Lipolysis % Inhib. at mg/Kg (In Vivo Lipolysis; 25 mg/Kg p.o.): 97%

SMILES: COc1ccc(NC(=O)Oc2cccc3ccoc23)c(OC)c1 [Example 2, 7-Benzofuranyl N-(2,4-dimethoxy)phenyl carbamate]
- IC50 (Canine cardiac lipases): 40 µM
- IC50 (rat adipocyte lipolysis): 0.3 µM
- In Vivo Lipolysis % Inhib. at mg/Kg (In Vivo Lipolysis; 100 mg/Kg p.o.): 71%

SMILES: O=C(NC1CCCCC1)Oc1cccc2ccoc12 [Example 3, 7-Benzofuranyl N-(cyclohexyl)carbamate]
- IC50 (Canine cardiac lipases): 10 µM
- IC50 (rat adipocyte lipolysis): 12 µM
- In Vivo Lipolysis % Inhib. at mg/Kg (In Vivo Lipolysis; 100 mg/Kg p.o.): 26%

SMILES: COc1ccc(NC(=O)Oc2cccc3ocnc23)cc1 [Example 4, 4-Benzoxazoyl N-(4-methoxyphenyl)carbanamate]
- IC50 (Canine cardiac lipases): 79 µM
- IC50 (rat adipocyte lipolysis): 2.4 µM
- In Vivo Lipolysis % Inhib. at mg/Kg (In Vivo Lipolysis; 100 mg/Kg i.p.): 40%
